Experimental data published in patent US12075776B2, “Synthetic lures” (VICTORIA LINK LIMITED, priority 2016, dated 2024).

Columns and labels:
Assay type in all cases: in vivo
[1] = test system: wild, free-ranging rats; test: Model selection / model averaging of blend-trial response variables (Visitation, Contact, Marking, Intensity); settings: for relative importance of variable (model averaging), Contact: response variable Contact (chew or bite marks); for relative importance of variable (model averaging), Marking: response variable Marking (urination and/or faecal marking); for relative importance of variable (model averaging), Visitation: response variable Visitation (tracking), presence/absence of compound in lure as predictor
Description: (§1) Trials were designed to compare the performance of each lure relative to the best performing lure after each successive trial phase. The elimination of poorer performing lures allowed for higher levels of internal replication and the inclusion of additional multi-component blend lures to Phase Two. Lures were scored using the presence/absence of rat tracks on inked tracking cards to provide a proportion of tracking cards receiving species-specific visitations and hereafter termed the ‘tracking rate’. The tracking rate was used to direct the elimination process. Lures that were statistically less attractive than the best performing lure after Phase One trials were eliminated from subsequent trials. Three behavioural response variables were scored that were designed to quantify the strength of the visit to the respective lure: (1) the presence of urination and/or faecal marking in or on the tracking tunnel and hereafter termed ‘Marking’; (2) the presence of chew or bite marks on the microtube and/or tracking tunnel and hereafter termed ‘Contact’ and; (3) the amount of footprints on each tracking card that received a visitation. This was measured using a 10 cm×47 cm Perspex sheet with a grid made up of 1 cm^2 squares. The number of squares with species-specific tracks was calculated to provide a score, hereafter termed ‘Intensity’. Intensity was designed to identify lures that generated intensive or multiple visits by an individual or that elicited visits from multiple individuals.
A multi-model information-theoretic approach was used at the end of Phase Two to identify the models of best fit for each of the four response variables (Tracking, Marking, Contact and Intensity) and to investigate possible synergistic effects between compounds used in multi-component blends. Data for each lure comprising one or any combination of A6, B6, C6, F7 and/or 17 were collated. Model averaging was used to identify each compounds relative importance to each response variable.
Binomial tests were used to compare the performance of each lure to the best performing lure at the end of each in-field trial phase and drive the process. Tracking, Marking and Contact models were run as generalised linear mixed-effects models (GLMM) with a binomial distribution and logit link and a linear mixed-effects model (LMM) for Intensity. The presence/absence of compounds in each lure were used as predictor variables.
A ‘Global’ model was firstly generated containing all fixed-effect parameters, with ‘Site’ and/or ‘Transect’ and/or ‘Trial Phase” included as random effects. This allowed for the examination of both spatial (Site and Transect) and temporal (Trial Phase) impacts on the data. ‘Transect’ nested within ‘Site’ and ‘Trial Phase’ provided an improved model fit compared to any other random effect model, therefore all models were run with the inclusion of ‘Transect’ nested within ‘Site’ and ‘Trial Phase” as random effects. Akaike's information criterion corrected for small sample size (AICc) was used to compare models. Corresponding Akaike differences (Δi), the number of parameters (K), Akaike weights (Wi) and log-likelihoods (LL) were also calculated. As the model set was not balanced i.e., there were not equal numbers of models for each variable a cut-off of 10AICC was used (Bolker et al. 2009) to create the model averaging candidate model-sets from the relative importance of variables were derived. Correlations between the response variables used in linear regression models were examined using Dice's similarity coefficient (QS) due to the binary nature of three of the four variables (Choi et al. 2010).
Statistical significance was assumed wherever P≤0.05. All statistical analysis was run in R (R Core Team 2016), with package Ime4 (Bates et al. 2015) used for mixed-effects models and MuMIn (Barton 2016) used for AICc scores, weights, deltas, log-likelihoods and model averaging (using the dredge function).

[2] = test system: wild, free-ranging rats; test: Blend trials (Phase One and Phase Two) of single and multi-component lures in tracking tunnels; settings: Phase One; for performance versus top performing lure CF (binomial test): P<0.03
Description: Lure preparation and presentation methods followed those outlined above.
For Phase One, A6, B6, C6, F7 and 17 identified as in Table 2 were presented. For example, A6 and B6 were blended together in equal parts to make a dyad lure coded AB. Each trial consisted of a single spatially stratified transect. Each strata contained one of each lure, a control (FCO) and the standard (peanut butter). The number of transect strata varied between trials according to site conditions i.e., track length and accessibility. Lures were spaced at 50 m, with the order of lures randomised within transect strata and between each trial. All lures were left in situ for two rain-free night. Ten trials were undertaken at independent sites across the Greater Wellington region and Richmond Range, Nelson, New Zealand between 11 Nov. 2015 and 25 Feb. 2016.
For Phase Two, the best performing single and dyad lures identified after Phase One were presented. In addition, all possible triad, tetrad and pentad blend combinations of A, B, C, F and I were created and trialled. […]
as §1, with “The elimination of poorer performing lures allowed for higher levels of internal replication and the inclusion of additional multi-component blend lures to Phase Two.” left out, “The tracking rate was used to direct the elimination process. Lures that were statistically less attractive than the best performing lure after Phase One trials were eliminated from subsequent trials.” left out, “Intensity was designed to identify lures that generated intensive or multiple visits by an individual or that elicited visits from multiple individuals.” left out

[3] = test system: wild, free-ranging rats; test: Model selection / model averaging of blend-trial response variables (Visitation, Contact, Marking, Intensity); settings: response variable Intensity (footprint squares); Phase removed as random effect
[4] = test system: wild, free-ranging rats; test: Field trials of single-compound synthetic lures in tracking tunnels (tracking rate); settings: for attractiveness relative to peanut butter standard and control (aggregated tracking rate): tracking rate aggregated for all seven concentrations 10,000 to 0.01 ppm in fractionated coconut oil, one night, FIG. 2
Description: Synthetic lures comprising a single compound mixed in a carrier medium (fractionated coconut oil) were presented to wild, free-ranging rats at 7 concentrations, decreasing in orders of magnitude from 10,000 ppm to 0.01 ppm. The compounds and concentrations used are set out in Table 2. Lures were presented in 1.7 mL Eppendorf microtubes secured to the inside wall of tracking tunnels using a cable tie. Inked cards were placed in each tunnel to quantify the visitation and identity of species visiting lures. Lures were randomly assigned along transects, with a minimum 25-m spacing between lures and with transects separated by 200 m. A control (fractionated coconut oil only) and standard (peanut butter) were assigned to each transect, with each transect comprising of lures presented at the same concentration. The order of transects was randomised for each trial. All lures were left in situ for one rain-free night. Lures were scored using the presence of rat tracks on inked cards to provide a proportion of inked cards receiving a visit for each lure, hereafter termed the “tracking rate”. Binomial tests were used to compare the tracking rate of each individual lure against peanut butter at the end of the trial period. Binomial tests were run in R (R Core Team 2013). Ten trials were undertaken at independent sites across the Wainuiomata and Orongorongo catchment region and within the Akatarawa and Pakuratahi Forest Parks, Wellington region (41° 15S, 175° 00E), New Zealand between 15 Jul. 2015 and 11 Nov. 2015.

## CC(=O)C(C)O (stereo not drawn) [C, acetoin]
[1]
  relative importance of variable (model averaging), Contact: 0.50
  relative importance of variable (model averaging), Marking: 0.96
  relative importance of variable (model averaging), Visitation: 0.58
[2]; 10 sites, n=30 per lure, two nights, summer months
  tracking rate: 0.20
[3]
  relative importance of variable (model averaging), Intensity: 0.94
[4]
  attractiveness relative to peanut butter standard and control (aggregated tracking rate): more attractive than the peanut butter standard

## CC(C)CC(=O)O [D, Isopentanoic acid]
[4]
  attractiveness relative to peanut butter standard and control (aggregated tracking rate): less attractive than the peanut butter standard and the control

## CC(=O)OCC(C)C [F, isobutyl acetate]
[1]
  relative importance of variable (model averaging), Contact: 0.78
  relative importance of variable (model averaging), Marking: 0.987
  relative importance of variable (model averaging), Visitation: 0.70
[2]
  performance versus top performing lure CF (binomial test): statistically weaker
[3]
  relative importance of variable (model averaging), Intensity: 0.86
[4]
  attractiveness relative to peanut butter standard and control (aggregated tracking rate): more attractive than the peanut butter standard

## CC(=O)OCCC(C)C [G, Isopentyl acetate]
[4]; seven concentrations 10,000 to 0.01 ppm
  trend of attraction with concentration: no trend
[4]
  attractiveness relative to peanut butter standard and control (aggregated tracking rate): less attractive than the peanut butter standard and the control

## CC(C)CCO [A, isoamyl alcohol]
[1]
  relative importance of variable (model averaging), Contact: 0.68
  relative importance of variable (model averaging), Marking: 0.95
  relative importance of variable (model averaging), Visitation: 0.69
[3]
  relative importance of variable (model averaging), Intensity: 0.85
[4]
  attractiveness relative to peanut butter standard and control (aggregated tracking rate): more attractive than the peanut butter standard

## Cc1nc(C)c(C)nc1C [H, Tetramethylpyrazine]
[4]
  attractiveness relative to peanut butter standard and control (aggregated tracking rate): less attractive than the peanut butter standard but more attractive than the control

## CCCCCCO [B, 1-hexanol]
[1]
  relative importance of variable (model averaging), Contact: 0.50
  relative importance of variable (model averaging), Marking: 0.95
  relative importance of variable (model averaging), Visitation: 0.90
[2]
  performance versus top performing lure CF (binomial test): statistically weaker
[3]
  relative importance of variable (model averaging), Intensity: 0.89
[4]
  attractiveness relative to peanut butter standard and control (aggregated tracking rate): more attractive than the peanut butter standard

## Cc1nccnc1C [E, 2,3-dimethylpyrazine]
[4]
  attractiveness relative to peanut butter standard and control (aggregated tracking rate): less attractive than the peanut butter standard and the control

## CCC(C)COC(C)=O (stereo not drawn) [I, 2-methylbutyl acetate]
[1]
  relative importance of variable (model averaging), Contact: 0.48
  relative importance of variable (model averaging), Marking: 0.95
  relative importance of variable (model averaging), Visitation: 0.84
[3]
  relative importance of variable (model averaging), Intensity: 0.88
[4]
  attractiveness relative to peanut butter standard and control (aggregated tracking rate): more attractive than the peanut butter standard
